Laboratory results reported in patent US7935848B2, “Butone derivatives useful as cooling agents” (Givaudan S.A., priority 2007, dated 2011).

Tests used:
Assay type in all cases: in vivo, human
[1] = Cooling intensity: panelists taste aqueous solutions, compared with menthol at 2 ppm; conditions: tasted by small group of panelists
[2] = Application in toothpaste: cooling perception after brushing; conditions: for Cooling sensation felt by the panelist in all areas of the mouth: opaque toothgel with 0.50 g peppermint oil and 0.30 g saccharin, teeth brushed, mouth rinsed; for Cooling sensation felt by the panelist in all areas of the mouth / Duration of cooling perception: test compound 0.05 g per 100 g; for Cooling perception rating versus control: toothgel with 0.05 g compound plus 0.50 g peppermint oil versus peppermint oil control; for Duration of cooling perception: toothgel, 0.50 g peppermint oil
Description: The chemicals are mixed in the toothgel, a piece of toothgel is put on a toothbrush and a panelist's teeth are brushed. The mouth is rinsed with water and the water is spat out. […] The cooling perception lasts for 40 minutes.
The chemicals are mixed in the toothgel, a piece of toothgel is put on a toothbrush and a panelist's teeth are brushed. The mouth is rinsed with water and the water is spat out.

[3] = Application in chewing gum: cooling perception after chewing; conditions: for Cooling perception rated higher than the control: chewing gum with 0.05 g compound plus 0.50 g peppermint oil versus peppermint oil control; for Cooling sensation felt by the panelist in all areas of the mouth: chewing gum with 0.50 g peppermint oil; for Cooling sensation felt by the panelist in all areas of the mouth / Duration of cooling perception: test compound 0.05 g, 2 g piece chewed 20 min; for Duration of cooling perception: chewing gum, 0.50 g peppermint oil
Description: The gum base and half of the sorbitol were mixed, maltitol syrup was added and the mixed with the gum mass. The rest of powder (rest of sorbitol, mannitol, potassium acesulfame, aspartame) were added and mixed for about 1 minute, when glycerine was added and the gum mass was mix for about 5 minutes, to form the blank chewing gum mass. Peppermint oil was worked into the mass and a piece of the resulting gum (2 g) is chewed by the panelist for 20 min and spat out. […] The cooling perception lasts for 50 minutes.
The chemical and peppermint oil was worked into the blank chewing gum mass from Example 12 a) and a piece of the resulting gum (2 g) is chewed by the panelist for 20 minutes and spat out.
The chemical and peppermint oil was worked into the blank chewing gum mass from Example 12a) and a piece of the resulting gum (2 g) is chewed by the panelist for 20 minutes and spat out.

Row | SMILES | Concentration with cooling intensity similar to or slightly higher than a solution of menthol at 2 ppm [1] [ppm] | Cooling sensation felt by the panelist in all areas of the mouth [2] | Cooling perception rating versus control [2] | Duration of cooling perception [2] [min] | Cooling perception rated higher than the control [3] [%] | Cooling sensation felt by the panelist in all areas of the mouth [3] | Duration of cooling perception [3]
1 | CCCC(=O)[C@@H]1C[C@H](C)CC[C@H]1C(C)C [Example 1, 1-((1R,2S,5R)-2-isopropyl-5-methylcyclohexyl)butan-1-one] | 2.0 | intense cooling sensation | higher then the control | 72 | 49 | cooling sensation | over 60 minutes
2 | CC(C)[C@@H]1CC[C@@H](C)C[C@H]1C(=O)CCCc1ccccc1 [Example 2, 1-((1R,2S,5R)-2-isopropyl-5-methylcyclohexyl)-4-phenylbutan-1-one] | 2.0 | intense cooling sensation | higher then the control | 70 | 49 | cooling sensation | over 60 minutes
3 | CC(C)[C@@H]1CC[C@@H](C)C[C@H]1C(=O)CCCc1ccccn1 [Example 3, 1-((1R,2S,5R)-2-isopropyl-5-methylcyclohexyl)-4-(pyridin-2-yl)butan-1-one] | 0.01 | – | – | – | – | – | –
4 | CC(C)C(C)(C(=O)CCCc1ccccc1)C(C)C [Example 4, 5-isopropyl-5,6-dimethyl-1-phenylheptan-4-one] | 3.0 | – | – | – | – | – | –
5 | CCNC(=O)C1CC(C)CCC1C(C)C (stereo not drawn) [WS-3, N-ethyl p-menthanecarboxamide, reference compound] | 1.5 | – | – | – | – | – | –
6 | CC(C)[C@@H]1CC[C@@H](C)C[C@H]1O [l-Menthol, reference compound] | 2.0 | – | – | – | – | – | –
